Experimental data as given in ChEMBL document CHEMBL5137099, “Discovery of Novel cccDNA Reducers toward the Cure of Hepatitis B Virus Infection” (J Med Chem, 2022).
pIC50: −log10 of the molar value. Values after ≈ are worked out from the molar mass of the structure shown.

Key:
[1] = Aqueous solubility of the compound; format: physicochemical; settings: buffer
[2] = Permeability of the compound by PAMPA analysis; format: ADME; settings: read-out: permeability
[3] = system: Hepatitis B virus; assay: Antiviral activity against HBV infected in human HepDES19 cells assessed as reduction in HBV cccDNA production by measuring inhibition of HBeAg secretion incubated for 5 days by ELISA; format: functional, organism-based; settings: HepDES19, 120 h
[4] = Metabolic stability in human microsomes assessed as clearance; format: ADME, Microsome; settings: read-out: CLH
[5] = system: Hepatitis B virus; assay: Antiviral activity against HBV infected in human HepG2 cells assessed as reduction in HBeAg secretion incubated for 5 days by counter screen assay; format: functional, organism-based; settings: HepG2, 120 h
[6] = Octanol-aqueous buffer distribution coefficient, log D of the compound at pH 7.4 by CAMDIS assay; format: physicochemical
[7] = Therapeutic index, ratio of CC50 for cytotoxicity against human HepDES19 cells assessed as reduction in cell viability measured after 5 days by CCK-8 assay to IC50 for antiviral activity against HBV infected in human HepDES19 cells assessed as reduction in HBV cccDNA production by measuring inhibition of HBeAg secretion incubated for 5 days by ELISA; format: toxicity, cell-based; settings: time 5 day, read-out: Ratio CC50/IC50
[8] = Cytotoxicity against human HepDES19 cells assessed as reduction in cell viability measured after 5 days by CCK-8 assay; format: toxicity, cell-based; settings: time 5 day
[9] = system: Hepatitis B virus; assay: Antiviral activity against HBV infected in human primary hepatocyte cells assessed as reduction in HBV cccDNA production by measuring inhibition of HBsAg secretion measured after 48 hrs by ELISA; format: functional, organism-based

Compound	solubility [1] [µg/mL]	Papp [2] [×10⁻⁶ cm/s]	pIC50 [3]	CLint scaled [4] [mL/min/kg]	pIC50 [5]	logD [6]	selectivity ratio at 120 h [7]	CC50 at 120 h [8] [µM]	pIC50 [9]
O=C(O)c1cc2c(=O)c3cccc(Cl)c3oc2cc1N1CCCC1	30 (≈ 87.3 µM)	8.64	< 4.00	6.7	< 4.30	–	–	–	–
O=c1c2ccc(N3CCCC3)cc2oc2c(F)cccc12	< 1	0.95	6.68	20.5	< 4.30	–	–	–	–
O=C(O)C1CCN(c2ccc3c(=O)c4cccc(Cl)c4oc3n2)C1 (stereo not given)	410 (≈ 1190 µM)	1.55	4.30	6.2	< 4.30	–	–	–	–
O=C(O)C1CCN(c2cc3oc4c(Cl)cccc4c(=O)c3cn2)C1 (stereo not given)	> 395	0.96	5.39	–	< 4.30	< -0.5	–	–	–
CN1CCN(c2ccc3c(=O)c4cccc(F)c4oc3c2)CC1	27 (≈ 86.4 µM)	0.08	4.79	18	< 4.30	–	–	–	–
CC1(C)CN(c2ccc3c(=O)c4cccc(Cl)c4oc3c2)CC1C(=O)O (stereo not given)	294 (≈ 791 µM)	0.98	4.90	–	< 4.30	–	–	–	–
O=C(O)C1CCN(c2ccc3c(c2)Oc2c(Cl)cccc2S3(=O)=O)C1 (stereo not given)	< 506	1.26	< 4.30	–	< 4.30	–	–	–	–
O=c1c2ccc(N3CCCC3)cc2oc2c(Cl)cccc12	< 1	0.24	6.64	18.9	< 4.30	–	–	–	–
COc1ccccc1C(=O)Nc1ccc2c(=O)c3cccc(F)c3oc2c1	< 1	–	4.07	–	< 4.30	–	> 1	> 100	–
O=C(O)C1CCCN1c1ccc2c(=O)c3cccc(Cl)c3oc2c1 (stereo not given)	290 (≈ 844 µM)	2.79	4.94	6.2	< 4.30	–	–	–	–
O=C(O)C1CCN(c2ccc3c(=O)c4c(O)ccc(Cl)c4oc3c2)C1 (stereo not given)	200 (≈ 556 µM)	0.53	5.76	–	< 4.30	1.71	–	–	–
O=C1CCCN1c1ccc2c(=O)c3cccc(F)c3oc2c1	< 1	2.09	6.08	22	< 4.30	–	–	–	–
COc1ccc(Cl)c2oc3cc(N4CCC(C(=O)O)C4)ccc3c(=O)c12 (stereo not given)	> 415	0.68	< 4.30	–	< 4.30	0.47	–	–	–
N#Cc1cc2c(=O)c3cccc(Cl)c3oc2cc1N1CCC(C(=O)O)C1 (stereo not given)	> 430	–	5.08	–	< 4.30	< -0.5	–	–	–
O=C(Nc1ccc2c(=O)c3cccc(Cl)c3oc2c1)c1ccccc1[N+](=O)[O-]	< 1	–	4.96	–	< 4.30	–	> 9	> 100	–
CCN(CC)c1ccc2c(=O)c3cccc(Cl)c3oc2c1	< 1	0.54	5.78	20.3	< 4.30	–	–	–	–
O=C1Nc2ccc(N3CCC(C(=O)O)C3)cc2Oc2c(Cl)cccc21 (stereo not given)	< 415	1	< 4.30	–	< 4.30	–	–	–	–
Cc1cc2c(=O)c3cccc(Cl)c3oc2cc1N1CCC(C(=O)O)C1 (stereo not given)	< 465	1.34	6.12	–	< 4.30	1.5	–	–	5.52
O=C(O)[C@H]1CN(c2ccc3c(=O)c4cccc(Cl)c4oc3c2)C[C@@H]1c1ccc(F)cc1	–	–	5.13	–	< 4.30	–	–	–	–
CC(=O)Nc1ccc2c(=O)c3cccc(F)c3oc2c1	< 1	8.5	5.21	19.7	< 4.30	–	–	–	–
O=C(Nc1ccc2c(=O)c3cccc(F)c3oc2c1)c1ccccc1	< 1	0.22	5.72	–	< 4.30	–	> 53	> 100	–
Clc1cccc2c1Oc1cc(N3CCCC3)ccc1C2	< 1	0.36	5.95	–	< 4.30	–	–	–	–
Fc1cccc2c1Oc1cc(N3CCCC3)ccc1C2	< 1	–	5.40	–	< 4.30	–	–	–	–
NC1CCN(c2ccc3c(=O)c4cccc(F)c4oc3c2)C1 (stereo not given)	23 (≈ 77.1 µM)	0.79	5.31	6.7	< 4.30	–	–	–	–
Cc1ccc(Cl)c2oc3cc(N4CCC(C(=O)O)C4)ccc3c(=O)c12 (stereo not given)	252 (≈ 704 µM)	0.59	5.95	–	< 4.30	1.75	–	–	–
O=C(O)C1(C(F)(F)F)CCN(c2ccc3c(=O)c4cccc(Cl)c4oc3c2)C1 (stereo not given)	> 510	1.78	4.57	–	< 4.30	1.26	–	–	–

Compound	solubility [1] [µg/mL]	Papp [2] [×10⁻⁶ cm/s]	pIC50 [3]	CLint scaled [4] [mL/min/kg]	pIC50 [5]	logD [6]	selectivity ratio at 120 h [7]	CC50 at 120 h [8] [µM]	pIC50 [9]
O=c1c2ccc(N3CCOCC3)cc2oc2c(F)cccc12	< 1	1.8	5.68	20.8	< 4.30	–	–	–	–
O=C1Nc2ccc(N3CCCC3)cc2Oc2c(Cl)cccc21	< 1	2.09	5.23	–	< 4.30	–	–	–	–
O=c1c2ccc(N3CCC(O)C3)cc2oc2c(F)cccc12 (stereo not given)	< 1	1.49	6.37	17.5	< 4.30	–	–	–	–
O=C(O)CC1CCN(c2ccc3c(=O)c4cccc(Cl)c4oc3c2)C1 (stereo not given)	< 465	1.55	5.18	–	< 4.30	–	–	–	–
Cn1ccnc1C(=O)Nc1ccc2c(=O)c3cccc(F)c3oc2c1	–	–	6.31	–	< 4.30	–	> 102	> 50	–
CC1(C(=O)O)CCN(c2ccc3c(=O)c4cccc(Cl)c4oc3c2)C1 (stereo not given)	–	2.03	5.76	–	< 4.30	1.73	–	–	–
O=C(Nc1ccc2c(=O)c3cccc(F)c3oc2c1)c1ccncc1F	< 1	–	5.61	–	< 4.30	–	> 20.6	> 100	–
CCNc1ccc2c(=O)c3cccc(F)c3oc2c1	< 1	0.36	6.21	22.6	< 4.30	–	–	–	–
CCNc1ccc2c(=O)c3cccc(Cl)c3oc2c1	< 1	6.73	6.77	15.7	< 4.30	–	–	–	–
Clc1cccc2c1Oc1cc(N3CCCC3)ccc1C2C1COC1 (stereo not given)	–	0.09	5.13	–	< 4.30	–	–	–	–
N#Cc1ccc(Cl)c2oc3cc(N4CCC(C(=O)O)C4)ccc3c(=O)c12 (stereo not given)	> 443	0.8	5.96	–	< 4.30	–	–	–	4.91
O=C(Nc1ccc2c(=O)c3cccc(F)c3oc2c1)c1ccncc1	< 1	–	5.94	–	< 4.30	–	> 134	> 100	–
O=C(O)C1CCN(c2cc3oc4c(Cl)cccc4c(=O)c3cc2F)C1 (stereo not given)	–	–	5.93	–	< 4.30	1.39	–	–	5.11
O=c1c2ccc(N3CCCCC3)cc2oc2c(Cl)cccc12	< 1	0.49	6.01	20.2	< 4.30	–	–	–	–
OC1(C(F)(F)F)c2ccc(N3CCCC3)cc2Oc2c(Cl)cccc21 (stereo not given)	< 1	6.73	4.72	–	< 4.30	–	–	–	–
O=C1Nc2cccc(Cl)c2Oc2cc(N3CCC(C(=O)O)C3)ccc21 (stereo not given)	–	1.64	4.85	–	< 4.30	–	–	–	–
O=C(Nc1ccc2c(=O)c3cccc(F)c3oc2c1)c1ccccc1O	< 1	–	5.17	–	< 4.30	–	5	35.1	–
O=C(Nc1ccc2c(=O)c3cccc(F)c3oc2c1)c1ccccc1Cl	< 1	–	5.58	–	< 4.30	–	> 38	> 100	–
O=c1c2ccc(N3CCCCCC3)cc2oc2c(F)cccc12	73 (≈ 234 µM)	1.64	5.12	6.2	< 4.30	–	–	–	–
O=C(O)C1CCN(c2cc3oc4c(Cl)cccc4c(=O)c3cc2Cl)C1 (stereo not given)	< 1	1.59	5.95	–	< 4.30	1.95	–	–	–
CCOc1ccc(Cl)c2oc3cc(N4CCC(C(=O)O)C4)ccc3c(=O)c12 (stereo not given)	330 (≈ 851 µM)	0.7	5.54	–	< 4.30	0.93	–	–	–
CC1c2ccc(N3CCCC3)cc2Oc2c(Cl)cccc21 (stereo not given)	< 1	0.015	5.82	–	< 4.30	–	–	–	–
O=C(O)C1CCCN(c2ccc3c(=O)c4cccc(Cl)c4oc3c2)C1 (stereo not given)	< 474	2.43	5.42	6.2	< 4.30	–	–	–	–
CN(C(=O)c1ccncc1)c1ccc2c(=O)c3cccc(F)c3oc2c1	< 1	–	4.74	–	< 4.30	–	> 5	> 100	–
O=C(Nc1ccc2c(=O)c3ccccc3oc2c1)c1ccccc1F	< 1	–	5.39	–	< 4.30	–	> 13	> 50	–
O=c1c2ccc(N3CCCC3)nc2oc2c(F)cccc12	–	9.1	4.72	20.6	< 4.30	–	–	–	–
